Test results: the supplement of paper PMC10307832

Assays:
Test in all cases: relative viability (nuclei count vs DMSO), 5 days (fraction); higher = more cells survive
[1] = compound: CC[C@H](C)N1C=C(C2=C(C=C(C=C21)C3=CN=C(C=C3)N4CCNCC4)C(=O)NCC5=C(C=C(NC5=O)C)C)C [GSK126] + CCNC(=O)c1noc(-c2cc(C(C)C)c(O)cc2O)c1-c1ccc(CN2CCOCC2)cc1 [Luminespib] (partner 0.01 µM)
Outline: (§1)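 Nuclei were stained with Hoechst during a one-step fixation (final 0.05% Triton X-100, 1% formaldehyde, 1 ug/ml Hoechst) carried out 5 days after dosing, then counted on 4× images. The cells, lung cancer lines in 1536-well plates, had been dosed by pin tool the day after seeding with one drug alone or a fixed anchor-drug dose plus five library-drug doses (not always all listed) in √10 steps. Relative viability is the nuclei count in treated wells divided by that in vehicle wells, and each value is the median of duplicate plates.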

[2] = compound: C1CC(C1)(C(=O)O)C(=O)O.[NH2-].[NH2-].[Pt+2] [Carboplatin] + Nc1nc2[nH]cc(CCc3ccc(C(=O)N[C@@H](CCC(=O)O)C(=O)O)cc3)c2c(=O)[nH]1 [Pemetrexed] (partner 0.2 µM)
Outline: as §1

[3] = compound: C1CC(C1)(C(=O)O)C(=O)O.[NH2-].[NH2-].[Pt+2] [Carboplatin] + CC(=O)Nc1cccc(-n2c(=O)n(C3CC3)c(=O)c3c(Nc4ccc(I)cc4F)n(C)c(=O)c(C)c32)c1 [Trametinib] (partner 0.02 µM)
Outline: as §1

[4] = compound: CC[C@H](C)N1C=C(C2=C(C=C(C=C21)C3=CN=C(C=C3)N4CCNCC4)C(=O)NCC5=C(C=C(NC5=O)C)C)C [GSK126] + NC(=O)Nc1cc(-c2cccc(F)c2)sc1C(=O)N[C@H]1CCCNC1 [AZD7762] (partner 0.2 µM)
Outline: as §1

Cell Line: SK-MES-1
- relative viability ([1]; first compound 0.08 µM): 0.856
- relative viability ([1]; first compound 0.253 µM): 0.76
- relative viability ([1]; first compound 0.8 µM): 0.823
- relative viability ([1]; first compound 2.53 µM): 0.866
- relative viability ([1]; first compound 8 µM): 0.908
- relative viability ([2]; first compound 0.08 µM): 1.04
- relative viability ([2]; first compound 0.253 µM): 0.928
- relative viability ([2]; first compound 0.8 µM): 0.92
- relative viability ([2]; first compound 2.53 µM): 0.972
- relative viability ([2]; first compound 8 µM): 0.843
- relative viability ([3]; first compound 0.08 µM): 0.645
- relative viability ([3]; first compound 0.253 µM): 0.469
- relative viability ([3]; first compound 0.8 µM): 0.524
- relative viability ([3]; first compound 2.53 µM): 0.556
- relative viability ([3]; first compound 8 µM): 0.565

Cell Line: NCI-H1648
- relative viability ([4]; first compound 0.08 µM): 0.568
- relative viability ([4]; first compound 0.253 µM): 0.756
- relative viability ([4]; first compound 0.8 µM): 0.73
- relative viability ([4]; first compound 2.53 µM): 0.718
- relative viability ([4]; first compound 8 µM): 0.522
- relative viability ([2]; first compound 0.08 µM): 0.747
- relative viability ([2]; first compound 0.253 µM): 0.737
- relative viability ([2]; first compound 0.8 µM): 0.733
- relative viability ([2]; first compound 2.53 µM): 0.587
- relative viability ([2]; first compound 8 µM): 0.65
- relative viability ([3]; first compound 0.08 µM): 0.527
- relative viability ([3]; first compound 0.253 µM): 0.567
- relative viability ([3]; first compound 0.8 µM): 0.45
- relative viability ([3]; first compound 2.53 µM): 0.382
- relative viability ([3]; first compound 8 µM): 0.473

Cell Line: PC-14
- relative viability ([4]; first compound 0.08 µM): 0.335
- relative viability ([4]; first compound 0.253 µM): 0.314
- relative viability ([4]; first compound 0.8 µM): 0.35
- relative viability ([4]; first compound 2.53 µM): 0.417
- relative viability ([4]; first compound 8 µM): 0.312
- relative viability ([1]; first compound 0.08 µM): 0.163
- relative viability ([1]; first compound 0.253 µM): 0.144
- relative viability ([1]; first compound 0.8 µM): 0.174
- relative viability ([1]; first compound 2.53 µM): 0.155
- relative viability ([1]; first compound 8 µM): 0.114
- relative viability ([2]; first compound 0.08 µM): 0.127
- relative viability ([2]; first compound 0.253 µM): 0.131
- relative viability ([2]; first compound 0.8 µM): 0.143
- relative viability ([2]; first compound 2.53 µM): 0.11
- relative viability ([2]; first compound 8 µM): 0.0992
- relative viability ([3]; first compound 0.08 µM): 0.785
- relative viability ([3]; first compound 0.253 µM): 0.751
- relative viability ([3]; first compound 0.8 µM): 0.692
- relative viability ([3]; first compound 2.53 µM): 0.407
- relative viability ([3]; first compound 8 µM): 0.14

Cell Line: NCI-H1651
- relative viability ([4]; first compound 0.08 µM): 0.534
- relative viability ([4]; first compound 0.253 µM): 0.416
- relative viability ([4]; first compound 0.8 µM): 0.467
- relative viability ([4]; first compound 2.53 µM): 0.537
- relative viability ([4]; first compound 8 µM): 0.364
- relative viability ([1]; first compound 0.08 µM): 0.966
- relative viability ([1]; first compound 0.253 µM): 0.948
- relative viability ([1]; first compound 0.8 µM): 0.766
- relative viability ([1]; first compound 2.53 µM): 0.732
- relative viability ([1]; first compound 8 µM): 0.817
- relative viability ([2]; first compound 0.08 µM): 0.702
- relative viability ([2]; first compound 0.253 µM): 0.61
- relative viability ([2]; first compound 0.8 µM): 0.552
- relative viability ([2]; first compound 2.53 µM): 0.534
- relative viability ([2]; first compound 8 µM): 0.56
- relative viability ([3]; first compound 0.08 µM): 0.851
- relative viability ([3]; first compound 0.253 µM): 0.77
- relative viability ([3]; first compound 0.8 µM): 0.826
- relative viability ([3]; first compound 2.53 µM): 0.771
- relative viability ([3]; first compound 8 µM): 0.711

Cell Line: HOP-62
- relative viability ([4]; first compound 0.08 µM): 0.67
- relative viability ([4]; first compound 0.253 µM): 0.757
- relative viability ([4]; first compound 0.8 µM): 0.819
- relative viability ([4]; first compound 2.53 µM): 0.528
- relative viability ([4]; first compound 8 µM): 0.363
- relative viability ([1]; first compound 0.08 µM): 0.938
- relative viability ([1]; first compound 0.253 µM): 0.863
- relative viability ([1]; first compound 0.8 µM): 0.943
- relative viability ([1]; first compound 2.53 µM): 0.889
- relative viability ([1]; first compound 8 µM): 0.783
- relative viability ([2]; first compound 0.08 µM): 0.416
- relative viability ([2]; first compound 0.253 µM): 0.328
- relative viability ([2]; first compound 0.8 µM): 0.332
- relative viability ([2]; first compound 2.53 µM): 0.328
- relative viability ([2]; first compound 8 µM): 0.308
- relative viability ([3]; first compound 0.08 µM): 0.393
- relative viability ([3]; first compound 0.253 µM): 0.359
- relative viability ([3]; first compound 0.8 µM): 0.385
- relative viability ([3]; first compound 2.53 µM): 0.393
- relative viability ([3]; first compound 8 µM): 0.363

Cell Line: HCC-44
- relative viability ([4]; first compound 0.08 µM): 1.04
- relative viability ([4]; first compound 0.253 µM): 1.12
- relative viability ([4]; first compound 0.8 µM): 0.99
- relative viability ([4]; first compound 2.53 µM): 0.983
- relative viability ([4]; first compound 8 µM): 1.01
- relative viability ([1]; first compound 0.08 µM): 1.14
- relative viability ([1]; first compound 0.253 µM): 1.1
- relative viability ([1]; first compound 0.8 µM): 1
- relative viability ([1]; first compound 2.53 µM): 1.11
- relative viability ([1]; first compound 8 µM): 1.16
- relative viability ([2]; first compound 0.08 µM): 0.637
- relative viability ([2]; first compound 0.253 µM): 0.684
- relative viability ([2]; first compound 0.8 µM): 0.569
- relative viability ([2]; first compound 2.53 µM): 0.535
- relative viability ([2]; first compound 8 µM): 0.606
- relative viability ([3]; first compound 0.08 µM): 1.14
- relative viability ([3]; first compound 0.253 µM): 1.08
- relative viability ([3]; first compound 0.8 µM): 1.02
- relative viability ([3]; first compound 2.53 µM): 1.1
- relative viability ([3]; first compound 8 µM): 0.903

Cell Line: HCC-15
- relative viability ([4]; first compound 0.08 µM): 1.36
- relative viability ([4]; first compound 0.253 µM): 1.17
- relative viability ([4]; first compound 0.8 µM): 1.12
- relative viability ([4]; first compound 2.53 µM): 0.645
- relative viability ([4]; first compound 8 µM): 1.07
- relative viability ([1]; first compound 0.08 µM): 0.494
- relative viability ([1]; first compound 0.253 µM): 0.268
- relative viability ([1]; first compound 0.8 µM): 0.41
- relative viability ([1]; first compound 2.53 µM): 0.286
- relative viability ([1]; first compound 8 µM): 0.245
- relative viability ([2]; first compound 0.08 µM): 0.228
- relative viability ([2]; first compound 0.253 µM): 0.228
- relative viability ([2]; first compound 0.8 µM): 0.216
- relative viability ([2]; first compound 2.53 µM): 0.232
- relative viability ([2]; first compound 8 µM): 0.22
- relative viability ([3]; first compound 0.08 µM): 0.371
- relative viability ([3]; first compound 0.253 µM): 0.399
- relative viability ([3]; first compound 0.8 µM): 0.381
- relative viability ([3]; first compound 2.53 µM): 0.391
- relative viability ([3]; first compound 8 µM): 0.371

Cell Line: NCI-H460
- relative viability ([4]; first compound 0.08 µM): 0.616
- relative viability ([4]; first compound 0.253 µM): 0.5
- relative viability ([4]; first compound 0.8 µM): 0.594
- relative viability ([4]; first compound 2.53 µM): 0.538
- relative viability ([4]; first compound 8 µM): 0.546
- relative viability ([1]; first compound 0.08 µM): 0.0467
- relative viability ([1]; first compound 0.253 µM): 0.0392
- relative viability ([1]; first compound 0.8 µM): 0.0346
- relative viability ([1]; first compound 2.53 µM): 0.0287
- relative viability ([1]; first compound 8 µM): 0.0416
- relative viability ([2]; first compound 0.08 µM): 0.0702
- relative viability ([2]; first compound 0.253 µM): 0.0594
- relative viability ([2]; first compound 0.8 µM): 0.0708
- relative viability ([2]; first compound 2.53 µM): 0.068
- relative viability ([2]; first compound 8 µM): 0.0641
- relative viability ([3]; first compound 0.08 µM): 0.161
- relative viability ([3]; first compound 0.253 µM): 0.139
- relative viability ([3]; first compound 0.8 µM): 0.155
- relative viability ([3]; first compound 2.53 µM): 0.0949
- relative viability ([3]; first compound 8 µM): 0.0458
